Assays:
[1] = tested on: Helicobacter pylori; test: Minimal Inhibitory Concentrations against Helicobacter pylori on agar plates; type: cell-based
Description: Activity of bismuth compounds against Helicobarter pylori
Various bismuth compounds were tested in different concentrations against Helicobacter pylori on agar plates. Minimal Inhibitory Concentrations (MIC--values) are given in mg substance per litre.

[2] = stability against hydrolysis; type: physicochemical; conditions: dissolved in aqueous (25%) tetrahydrofuran, under reflux
Excerpt: When the R1-5 -groups form Bi--C bonds, aryl grou7ps are generally preferred. At least one of the R1-5 -groups should be an aryl group or substituted aryl group. The term "aryl group" here means any aromatic hydrocarbon ring system or aromatic heterocyclic system. Typical ring systems include for example benzene, naphthalene, indene, fluorene, phenalene, phenanthrene, anthracene, fluoranthene, acephenanthrylene, aceanthrylene, triphenylene, pyrene, chrysene, naphthacene, pleiadene, picene, perylene, pentaphene, pentacene, tetraphenylene, hexaphene, hexacene, rubicene, coronene, trinaphthylene, heptaphene, rubicene, coronene, heptacene, pyranthrene, ovalene, furan, thiophene, thianthrene, pyran, isobenzofuran, chromene, xanthene, phenoxathin, pyrrole, imidazole, pyrazole, isothiazole, isoxazole, pyridine, pyrazine, pyrimidine, pyradizine, indolizine, isoindole, indole, indazole, purine, quinolizine, isocaunoline, quinoline, phtalazine, naphyhyridine, quinoxaline, quinazoline, cinnoline, pteridine, carbazole, β-carboline, phenanthridine, acridine, permidine, phenanthroline, phenazine, phenarsazine, phenothiazine, furazan, phenoxazine, isochroman, chroman, indoline and iso-indoline.

Compound | Minimal Inhibitory Concentration (MIC - value) [1] [mg substance per litre] | stability against hydrolysis [2]
O=[N+]([O-])[O-].O=[N+]([O-])[O-].O=[N+]([O-])[O-].O=[N+]([O-])[O-].[Bi+3].[Bi+3].[Bi+3].[Bi+3].[Bi+3].[O-2].[OH-].[OH-].[OH-].[OH-].[OH-].[OH-].[OH-].[OH-].[OH-] [Bismuth subnitrate, bismuth hydroxide nitrate oxide] | 32 | –
Triphenylbismuthine difluoride [Example 16] | 8 | –
Tris(2,4,6trimethylphenyl)bismuthine dichloride [Example 15] | ≤ 0.25 | –
c1cc[c]([Bi]([c]2ccccc2)[c]2ccccc2)cc1 [triphenylbismuth] | – | stable under reflux for many days

Reference: US6303101A, “Bismuth compounds” (Nycomed Imaging AS, priority 1995, dated 2001)
